Patent publication US4088642A (priority 1973, dated 1978)

How the values were obtained:
[1] = Decomposition rate studies (half-life of azo and peroxide portions); assay type: physicochemical
Procedure: The temperatures at which the polymerizations are carried out will depend upon the polymerization technique; the monomer, solvent or suspending medium; and the physical properties desired in the polymer; but most of all upon the azo-peroxide initiator and the method chosen to decompose the azo or peroxide portion of the initiator. Activation of the peroxide portion by amines, reducing agents, transition metal carboxylates, etc., can be carried out from below -20° C up to its normal decomposition temperature. The same is true for activation of the peroxide or azo portions by irradiation. Irradiation sources can be ultra-violet radiation, and in the presence of photosensitizers (e.g. certain azo dyes) visible light can also be used. The temperatures used for the thermal decompositions of the azo or peroxide portions will depend upon the thermal stability (half-life) of the azo or peroxide grouping in the molecule. These half-lives can be determined quantitatively for each azo-peroxide compound by conventional methods i.e. gas evolution, and iodometric, ultra-violet, or gas chromatographic analytical techniques to determine the rate of disappearance of each portion (azo or peroxide) at any given temperature. (Such half-life data were determined for the compounds made in Examples 1 to 5.) […]
Its infrared spectrum was in agreement with the above structure showing both peresters and acid chloride carbonyl absorption bands. […] Apparently, the perester undergoes induced decomposition at this relatively high temperature.

Storage stability = assay type: physicochemical

SMILES: CC(C#N)(CCC(=O)Cl)N=NC(C)(C#N)CCC(=O)OOC(C)(C)C (stereo not drawn) [Example 5, mono-t-Butylperoxy Ester of the Diacid Chloride of trans-4,4'-Azobis(4-cyanovaleric acid)]
- decomposition order of azo and perester linkages ([1]; 90° C, dioctyl phthalate): decompose simultaneously

SMILES: CC1(C#N)CCC(=O)OOC(=O)CCC(C)(C#N)N=N1 (stereo not shown) [Example 1, 6,9-Dimethyl-6,9-dicyano-Δ^7,1,2-dioxa-7,8-diazacyclododecan-3,12-dione]
- t1/2 of azo portion ([1]; 70° C, o-dichlorobenzene): ≈ 236 minutes
- t1/2 of diacyl peroxide portion ([1]; 70° C, o-dichlorobenzene): ≈ 99 minutes
- storage stability (Storage stability): more than one month

SMILES: CC(C#N)(CCC(=O)OOC(C)(C)C)N=NC(C)(C#N)CCC(=O)OOC(C)(C)C (stereo not drawn) [Example 4, Di-t-butylperoxy Ester of cis-4,4'-Azobis(4-cyanovalericacid)]
- t1/2 of azo portion ([1]; 80° C, trichlorobenzene): ≈ 92 minutes
- t1/2 of perester portion ([1]; 80° C, trichlorobenzene): ≈ 319 minutes
- change of infrared spectrum on standing (room temperature stability) (Storage stability; two days at 21° C): not changed
